These results are taken from patent US10751339B2, “Substituted aminopyrimidine compounds and methods of use” (SUNSHINE LAKE PHARMA CO., LTD., priority 2018, dated 2020).

Molecules are shown by their SMILES.

In data set [1] the test system is KARPAS-422. The data set is described as follows: Cell proliferation assay (CTG), KARPAS-422. Particulars: Homo sapiens, 72 h. In kind it is cell-based. As for the experimental part: • 1. Harvest cells during the logarithmic growth period and count cell number using Count-star. • 2. Adjust cell concentrations to […] with respective culture medium. • 3. Add 90 μL cell suspensions to 96-well plates with the final cell density of 1×10^4 cells/well. (cell concentration will be adjusted according to the data base or density optimization assay.) • 4. The next day, prepare 10× solution (Top working concentration: 10 μM of test article in media with 3.16-fold serial dilutions to achieve 9 dose levels). • 5. Dispense 10 μL drug solution of both test article and reference control in each well (duplicate for each drug concentration) of the plate.

Data set [2] concerns the target PI3K (p110β/p85α) (h) (Homo sapiens (Human), UniProt P42338). As to the kind of experiment: PI3K (p110β/p85α) (h) non-radioactive HTRF kinase assay. The data set is classed as biochemical. The protocol: (§1) PI3K (p110β/p85α) (h) is incubated in assay buffer containing 10 μM phosphatidylinositol-4,5-bisphosphate and MgATP (concentration as required). The reaction is initiated by the addition of the MgATP mix. After incubation for 30 minutes at room temperature, the reaction is stopped by the addition of stop solution containing EDTA and biotinylated phosphatidylinositol-3,4,5-trisphosphate. Finally, detection buffer is added, which contains europium-labelled anti-GST monoclonal antibody, GST-tagged GRP1 PH domain and streptavidin-allophycocyanin. The plate is then read in timeresolved fluorescence mode and the homogenous time-resolved fluorescence (HTRF) signal is determined according to the formula HTRF=10000×(Em665 nm/Em620 nm).
(§2) The kinase assays described herein were performed at Millipore UK Ltd, Dundee Technology Park, Dundee DD2 1SW, UK.
A general note: Time-resolved FRET reads energy transfer from a long-lived donor to a nearby acceptor.

Data set [3] deals with PI3K-γ (RAW264.7). As to the kind of experiment: p-AKT HTRF assay, PI3K-γ in RAW 264.7 cells stimulated with C5a. In kind it is cell-based, murine. Particulars: Mus musculus; RAW264.7 cells, C5a stimulation. As for the experimental part:
(§3) Cells were incubated at 37° C. in a 5% CO2 atmosphere overnight. […] Medium was then aspirated and 50 μL/well of lysis buffer was added. Plates were shaked for 45 minutes at room temperature and then 16 ul/well of lysate was transferred to 384-well plate. 4 ul/well of premixed antibody was added to the wells. The plate was centrifuged at 1000 rpm at RT for 1 minute and then incubated for 4 hours at 22° C., and Phospho-AKT (ser473) Kit was used for detection.

Data set [4] relates to PI3K-δ (RAJI). As to the kind of experiment: p-AKT HTRF assay, PI3K-δ in RAJI cells stimulated with anti-IgM. The data set is classed as cell-based. Particulars: anti-human IgM stimulation. As for the experimental part: as §3
For data set [5], the target named is hERG channels (Homo sapiens (Human), UniProt Q12809). The data set is described as follows: hERG assay, automated QPatch procedure. The data set is classed as cell-based. An excerpt: Only stable cells with recording parameters above threshold were allowed to enter the drug application procedure.
Sequence of hERG channels (Q12809 whole entry): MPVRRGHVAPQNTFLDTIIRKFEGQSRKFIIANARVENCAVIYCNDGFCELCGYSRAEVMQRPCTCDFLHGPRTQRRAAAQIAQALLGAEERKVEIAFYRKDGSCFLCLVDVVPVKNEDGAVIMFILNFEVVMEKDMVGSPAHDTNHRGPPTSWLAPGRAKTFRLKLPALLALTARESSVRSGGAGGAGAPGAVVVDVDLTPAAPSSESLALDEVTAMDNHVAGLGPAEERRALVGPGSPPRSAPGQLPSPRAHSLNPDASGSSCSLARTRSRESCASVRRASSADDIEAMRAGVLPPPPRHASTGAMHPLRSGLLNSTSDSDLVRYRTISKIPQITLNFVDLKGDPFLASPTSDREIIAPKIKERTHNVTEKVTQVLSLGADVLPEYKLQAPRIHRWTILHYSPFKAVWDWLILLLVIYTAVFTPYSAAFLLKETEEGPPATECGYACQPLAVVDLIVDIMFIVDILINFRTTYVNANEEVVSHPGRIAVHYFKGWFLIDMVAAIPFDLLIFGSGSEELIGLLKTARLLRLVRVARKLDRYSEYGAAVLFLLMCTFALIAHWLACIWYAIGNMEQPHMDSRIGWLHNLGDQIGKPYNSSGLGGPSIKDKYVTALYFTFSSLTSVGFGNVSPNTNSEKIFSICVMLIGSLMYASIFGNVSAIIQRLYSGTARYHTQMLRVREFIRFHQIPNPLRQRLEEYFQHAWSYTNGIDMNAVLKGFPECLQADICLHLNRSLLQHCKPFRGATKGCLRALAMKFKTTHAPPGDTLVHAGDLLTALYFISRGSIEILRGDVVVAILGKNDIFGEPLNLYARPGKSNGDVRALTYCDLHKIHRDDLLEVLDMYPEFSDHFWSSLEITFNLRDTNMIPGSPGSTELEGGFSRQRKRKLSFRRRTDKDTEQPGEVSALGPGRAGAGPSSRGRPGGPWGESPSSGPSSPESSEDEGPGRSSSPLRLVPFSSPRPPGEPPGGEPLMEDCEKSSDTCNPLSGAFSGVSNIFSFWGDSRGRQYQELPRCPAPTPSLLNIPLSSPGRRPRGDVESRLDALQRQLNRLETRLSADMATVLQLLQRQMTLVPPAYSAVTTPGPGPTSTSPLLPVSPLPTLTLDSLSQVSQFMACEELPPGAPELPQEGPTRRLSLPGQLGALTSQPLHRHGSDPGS
On the technique in general: hERG is a cardiac potassium channel; its block is linked to QT prolongation.

The target in data set [6] is PI3K (p110δ/p85α) (h) (Homo sapiens (Human), UniProt O00329). As to the kind of experiment: PI3K (p110δ/p85α) (h) non-radioactive HTRF kinase assay. In kind it is biochemical. The protocol: as §1, with “(p110δ/p85α)” for “(p110β/p85α)”, “phosphatidylinositol-4, 5-bisphosphate” for “phosphatidylinositol-4,5-bisphosphate”
Sequence of PI3K (p110δ/p85α) (h) (O00329 whole entry): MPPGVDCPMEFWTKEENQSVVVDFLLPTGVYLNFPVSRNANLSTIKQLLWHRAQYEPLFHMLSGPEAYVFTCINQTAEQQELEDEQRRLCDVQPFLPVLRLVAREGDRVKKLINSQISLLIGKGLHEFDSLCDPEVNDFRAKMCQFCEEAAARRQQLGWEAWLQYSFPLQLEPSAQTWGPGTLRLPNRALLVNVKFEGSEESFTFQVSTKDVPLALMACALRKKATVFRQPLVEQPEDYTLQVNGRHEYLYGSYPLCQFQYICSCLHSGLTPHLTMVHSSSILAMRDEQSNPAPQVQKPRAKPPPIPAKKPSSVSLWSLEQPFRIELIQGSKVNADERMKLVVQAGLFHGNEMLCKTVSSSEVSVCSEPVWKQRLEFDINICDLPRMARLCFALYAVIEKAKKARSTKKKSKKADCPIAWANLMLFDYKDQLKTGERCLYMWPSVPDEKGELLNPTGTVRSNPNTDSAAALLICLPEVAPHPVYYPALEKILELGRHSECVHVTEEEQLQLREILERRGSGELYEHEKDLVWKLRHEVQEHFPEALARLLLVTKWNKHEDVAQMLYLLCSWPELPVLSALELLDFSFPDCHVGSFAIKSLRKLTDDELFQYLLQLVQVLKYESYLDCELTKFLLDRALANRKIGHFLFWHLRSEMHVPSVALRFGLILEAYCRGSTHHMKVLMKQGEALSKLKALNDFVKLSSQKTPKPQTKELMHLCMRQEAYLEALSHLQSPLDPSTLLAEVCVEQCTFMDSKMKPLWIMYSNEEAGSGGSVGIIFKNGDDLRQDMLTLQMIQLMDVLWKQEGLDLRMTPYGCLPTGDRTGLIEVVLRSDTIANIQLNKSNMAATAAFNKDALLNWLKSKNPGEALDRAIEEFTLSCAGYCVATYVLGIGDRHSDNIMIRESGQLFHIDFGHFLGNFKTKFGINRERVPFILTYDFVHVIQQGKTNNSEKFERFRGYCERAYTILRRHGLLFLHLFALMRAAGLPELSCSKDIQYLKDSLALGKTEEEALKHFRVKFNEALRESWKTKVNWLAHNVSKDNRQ
Sequence of PI3K (p110δ/p85α) (h) (P27986 whole entry partner): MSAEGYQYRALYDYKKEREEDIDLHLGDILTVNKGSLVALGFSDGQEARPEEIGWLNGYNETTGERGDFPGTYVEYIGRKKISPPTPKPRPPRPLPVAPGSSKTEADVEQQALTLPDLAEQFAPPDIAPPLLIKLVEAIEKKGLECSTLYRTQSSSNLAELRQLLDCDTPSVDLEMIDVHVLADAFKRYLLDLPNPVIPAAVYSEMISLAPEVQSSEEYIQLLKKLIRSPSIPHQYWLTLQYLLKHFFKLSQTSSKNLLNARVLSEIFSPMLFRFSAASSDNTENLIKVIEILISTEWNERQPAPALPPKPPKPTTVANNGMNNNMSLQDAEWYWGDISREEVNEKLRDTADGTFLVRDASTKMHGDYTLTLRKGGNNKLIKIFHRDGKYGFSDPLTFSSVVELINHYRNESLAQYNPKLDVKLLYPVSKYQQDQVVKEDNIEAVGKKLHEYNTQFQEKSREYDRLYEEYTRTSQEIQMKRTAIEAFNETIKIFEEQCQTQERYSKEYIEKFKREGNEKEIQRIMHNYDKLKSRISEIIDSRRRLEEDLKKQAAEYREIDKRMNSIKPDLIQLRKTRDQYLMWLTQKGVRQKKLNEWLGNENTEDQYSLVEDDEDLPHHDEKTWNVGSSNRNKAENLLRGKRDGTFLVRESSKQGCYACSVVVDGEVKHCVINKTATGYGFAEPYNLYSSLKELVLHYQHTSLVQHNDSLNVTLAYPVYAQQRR
as §2

The nature of data set [7]: Pharmacokinetic profiles in rats. In kind it is in vivo, rat. As for the experimental part: The compounds disclosed herein are assessed in pharmacokinetic studies in mice, rats, dogs or monkeys. The compounds are administered as a water solution, 2% HPMC+1% TWEEN®80 in water solution, 5% DMSO+5% solutol in saline, 4% MC suspension or capsule. For the intravenous administration, the animals are generally given at 1 or 2 mg/kg dose. For the oral (p.o.) dosing, mice and rats are generally given 5 or 10 mg/kg dose, and dogs and monkeys are generally given 10 mg/kg dose. The blood samples (0.3 mL) are drawn at 0.25, 0.5, 1.0, 2.0, 3.0, 4.0, 6.0, 8.0, 12 and 24 h time points or 0.083, 0.25, 0.5, 1.0, 2.0, 4.0, 6.0, 8.0 and 24 h time points and centrifuged at 3,000 or 4000 rpm for 2 to 10 min. The plasma solutions are collected, stored at −20° C. or −70° C. until analyzed by LC/MS/MS as described above.

Sequence of PI3K (p110β/p85α) (h) (P42338 whole entry, the tested form may be a part): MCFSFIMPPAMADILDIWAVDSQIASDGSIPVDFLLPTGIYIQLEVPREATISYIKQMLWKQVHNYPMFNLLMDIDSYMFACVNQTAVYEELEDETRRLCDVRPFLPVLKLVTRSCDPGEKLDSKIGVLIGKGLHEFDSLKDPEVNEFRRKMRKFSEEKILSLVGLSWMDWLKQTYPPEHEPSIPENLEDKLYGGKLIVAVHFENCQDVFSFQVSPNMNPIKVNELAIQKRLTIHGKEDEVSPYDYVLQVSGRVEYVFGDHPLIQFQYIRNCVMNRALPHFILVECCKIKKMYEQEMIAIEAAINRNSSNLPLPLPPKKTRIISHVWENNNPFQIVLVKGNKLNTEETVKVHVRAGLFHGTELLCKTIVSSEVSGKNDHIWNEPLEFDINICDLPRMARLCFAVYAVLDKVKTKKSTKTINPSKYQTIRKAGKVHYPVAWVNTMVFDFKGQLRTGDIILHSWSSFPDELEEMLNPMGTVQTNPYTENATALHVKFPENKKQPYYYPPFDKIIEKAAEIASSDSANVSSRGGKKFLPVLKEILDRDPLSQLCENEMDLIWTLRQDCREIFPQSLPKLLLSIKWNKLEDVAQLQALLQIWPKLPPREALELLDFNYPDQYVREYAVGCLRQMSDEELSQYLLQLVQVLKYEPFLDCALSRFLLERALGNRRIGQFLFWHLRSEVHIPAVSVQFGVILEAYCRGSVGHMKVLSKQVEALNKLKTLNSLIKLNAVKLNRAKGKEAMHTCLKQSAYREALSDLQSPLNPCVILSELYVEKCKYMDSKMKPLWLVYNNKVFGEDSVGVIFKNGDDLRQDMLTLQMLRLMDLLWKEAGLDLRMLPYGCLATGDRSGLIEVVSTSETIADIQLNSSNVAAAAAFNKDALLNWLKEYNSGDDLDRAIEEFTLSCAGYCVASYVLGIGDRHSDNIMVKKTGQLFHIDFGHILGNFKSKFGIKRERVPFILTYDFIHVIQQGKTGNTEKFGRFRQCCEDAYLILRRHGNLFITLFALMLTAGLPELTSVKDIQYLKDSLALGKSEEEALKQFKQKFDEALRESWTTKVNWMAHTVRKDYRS
Sequence of PI3K (p110β/p85α) (h) (P27986 whole entry partner, the tested form may be a part): as the sequence (P27986 whole entry partner) above

The term IC50 denotes the concentration that gives 50% inhibition. The term clearance denotes a measure of how efficiently the substance is removed, as volume per time. Lower therefore signals a low capacity for elimination. The AUC(0-t) is the area under the concentration-time curve up to a stated or last time point. A higher AUC(0-t) goes with high exposure. For orientation: half-life means how long it takes for the measured level to halve. As usually defined, the bioavailability is dose-corrected exposure relative to a reference, in per cent. The low end stands for poor availability, the high end for good availability. `Cc1noc(-c2c(N)ncnc2N[C@@H](C)c2nc3cccc(C#CCO)c3c(=O)n2-c2ccccc2)n1` [Example 34, (S)-2-(1-((6-amino-5-(3-methyl-1,2,4-oxadiazol-5-yl)pyrimidin-4-yl)amino)ethyl)-5-(3-hydroxyprop-1-yn-1-yl)-3-phenylquinazolin-4(3H)-one]: the concentration for half-maximal inhibition (IC50) in data set [1] was 0.31 µM; in data set [2], 0.16 µM; in data set [3] it was 0.128 µM; in data set [4], 0.00065 µM; in data set [5] it was greater than 30 µM; in data set [6], 0.004 µM. The same compound had a clearance in data set [7] (iv dosing 1 mg/kg) of 25 mL/min/kg. The compound also gave an area under the curve AUC(0-t) in data set [7] (rat, plasma, iv dosing 1 mg/kg) of 671 ng·h/mL. The compound also had a half-life in data set [7] (rat, plasma, iv dosing 1 mg/kg) of 54.6 min. For the same compound, the Vd in data set [7] (rat, plasma, iv dosing 1 mg/kg, read-out: Vss) turned out to be 1.68 L/kg. In data set [7] (rat, plasma, oral bioavailability), this compound displayed a bioavailability of 56.8%.
